Tests used:
Type in all cases: in vivo
[1] = tested on: Thrips tabaci; test: Thrips tabaci (Onion thrips) sunflower leaf disc spray test; conditions: foliar, 168 h, application rate of 200 ppm, sunflower leaf discs, population of mixed ages, mortality after 7 days
Protocol: Thrips tabaci (Onion thrips): Sunflower leaf discs were placed on agar in a 24-well microtiter plate and sprayed with test solutions at an application rate of 200 ppm. […] After an incubation period of 7 days, samples were checked for mortality.

[2] = tested on: Tetranychus urticae; test: Tetranychus urticae (Two-spotted spider mite) bean leaf disc spray test; conditions: foliar, 192 h, application rate of 200 ppm, bean leaf discs, mite populations of mixed ages, egg, larval and adult mortality 8 days later
Excerpt: Tetranychus urticae (Two-spotted spider mite): Bean leaf discs on agar in 24-well microtiter plates were sprayed with test solutions at an application rate of 200 ppm. After drying, the leaf discs are infested with mite populations of mixed ages. 8 days later, discs are checked for egg mortality, larval mortality, and adult mortality.

[3] = tested on: Spodoptera littoralis; test: Spodoptera littoralis (Egyptian cotton leafworm) cotton leaf disc spray test; conditions: foliar, 72 h, application rate of 200 ppm, cotton leaf discs, L1 larvae, mortality, feeding behavior, growth regulation 3 days after treatment
Excerpt: Spodoptera littoralis (Egyptian cotton leafworm): Cotton leaf discs were placed on agar in a 24-well microtiter plate and sprayed with test solutions at an application rate of 200 ppm. After drying, the leaf discs were infested with 5 L1 larvae. The samples were checked for mortality, feeding behavior, and growth regulation 3 days after treatment (DAT).

[4] = tested on: Myzus persicae; test: Myzus persicae (Green peach aphid) sunflower leaf disc spray test; conditions: foliar, 144 h, application rate of 200 ppm, sunflower leaf discs, aphid population of mixed ages, mortality after 6 DAT
Protocol: Myzus persicae (Green peach aphid): Sunflower leaf discs were placed on agar in a 24-well microtiter plate and sprayed with test solutions at an application rate of 200 ppm. After drying, the leaf discs were infested with an aphid population of mixed ages. After an incubation period of 6 DAT, samples were checked for mortality.

[5] = tested on: Plutella xylostella; test: Plutella xylostella (Diamond back moth) larva test on artificial diet; conditions: 144 h, application rate of 200 ppm (concentration in well 18 ppm), L2 larvae, larval mortality and growth regulation after 6 days
Protocol: Plutella xylostella (Diamond back moth): 24-well microtiter plate (MTP) with artificial diet was treated with test solutions at an application rate of 200 ppm (concentration in well 18 ppm) by pipetting. After drying, the MTP's were infested with L2 larvae (7-12 per well). After an incubation period of 6 days, samples were checked for larval mortality and growth regulation.

[6] = tested on: Diabrotica balteata; test: Diabrotica balteata (Corn root worm) larva test on artificial diet; conditions: 120 h, application rate of 200 ppm (concentration in well 18 ppm), L2 larvae, larval mortality and growth regulation after 5 days
Protocol: Diabrotica balteata (Corn root worm): A 24-well microtiter plate (MTP) with artificial diet was treated with test solutions at an application rate of 200 ppm (concentration in well 18 ppm) by pipetting. After drying, the MTP's were infested with L2 larvae (6-10 per well). After an incubation period of 5 days, samples were checked for larval mortality and growth regulation.

[7] = tested on: Heliothis virescens; test: Heliothis virescens (Tobacco budworm) egg/larva test on artificial diet; conditions: 96 h, application rate of 200 ppm (concentration in well 18 ppm), eggs 0-24 h old on artificial diet, egg mortality, larval mortality, growth regulation after 4 days
Protocol: Heliothis virescens (Tobacco budworm): Eggs (0-24 h old) were placed in 24-well microtiter plate on artificial diet and treated with test solutions at an application rate of 200 ppm (concentration in well 18 ppm) by pipetting. After an incubation period of 4 days, samples were checked for egg mortality, larval mortality, and growth regulation.

Measured: pest or weed control at 200 ppm

CCCN(C(=O)c1ccc[n+]([O-])c1)c1cccc(C(=O)N(C)c2c(Cl)cc(C(F)(C(F)(F)F)C(F)(F)F)cc2Br)c1F [Compound 1, N′-[3-[[2-bromo-6-chloro-4-[1,1,1,2,3,3,3-heptafluoro-prop-2-yl]phenyl]-N′-methyl-carbamoyl]-2-fluoro-phenyl]-N-propyl-1-oxido-pyridin-1-ium-3-carboxamide]
not listed: [6] | [7]
≥ 80%: all other assays above

CCc1cc(C(F)(C(F)(F)F)C(F)(F)F)cc(Br)c1N(C)C(=O)c1cccc(N(C)C(=O)c2cccnc2)c1F [Compound 2]
≥ 80%: all assays above

Cc1cc(C(F)(C(F)(F)F)C(F)(F)F)cc(Br)c1N(C)C(=O)c1cccc(N(C)C(=O)c2cccnc2)c1F [Compound 3]
not listed: [2]
≥ 80%: all other assays above

CN(C(=O)c1cccnc1)c1cccc(C(=O)Nc2c(Cl)cc(C(F)(C(F)(F)F)C(F)(F)F)cc2Br)c1F [Compound 4]
not listed: [3]
≥ 80%: all other assays above

CN(C(=O)c1ccc[n+]([O-])c1)c1cccc(C(=O)Nc2c(Cl)cc(C(F)(C(F)(F)F)C(F)(F)F)cc2Br)c1F [Compound 5]
not listed: [1]
≥ 80%: all other assays above

CCN(C(=O)c1cccnc1)c1cccc(C(=O)Nc2c(Cl)cc(C(F)(C(F)(F)F)C(F)(F)F)cc2Br)c1F [Compound 6]
≥ 80%: all assays above

CCN(C(=O)c1ccc[n+]([O-])c1)c1cccc(C(=O)Nc2c(Cl)cc(C(F)(C(F)(F)F)C(F)(F)F)cc2Br)c1F [Compound 7]
not listed: [1]
≥ 80%: all other assays above

CCCN(C(=O)c1cccnc1)c1cccc(C(=O)Nc2c(Cl)cc(C(F)(C(F)(F)F)C(F)(F)F)cc2Cl)c1 [Compound 8]
not listed: [2]
≥ 80%: all other assays above

CCCN(C(=O)c1ccc[n+]([O-])c1)c1cccc(C(=O)Nc2c(Cl)cc(C(F)(C(F)(F)F)C(F)(F)F)cc2Cl)c1 [Compound 9]
≥ 80%: [1] | [7] | [4] | [5]

CCN(C(=O)c1cccnc1)c1cccc(C(=O)Nc2c(Br)cc(C(F)(C(F)(F)F)C(F)(F)F)cc2Br)c1F [Compound 11]
≥ 80%: all assays above

CN(C(=O)c1cccnc1)c1cccc(C(=O)Nc2c(Br)cc(C(F)(C(F)(F)F)C(F)(F)F)cc2Br)c1F [Compound 12]
≥ 80%: all assays above

CCN(C(=O)c1ccc[n+]([O-])c1)c1cccc(C(=O)Nc2c(Br)cc(C(F)(C(F)(F)F)C(F)(F)F)cc2Br)c1F [Compound 13]
≥ 80%: all assays above

CN(C(=O)c1cccnc1)c1cccc(C(=O)N(C)c2c(Br)cc(C(F)(C(F)(F)F)C(F)(F)F)cc2Br)c1 [Compound 15]
not listed: [2] | [6]
≥ 80%: all other assays above

CCN(C(=O)c1cccnc1)c1cccc(C(=O)Nc2c(Cl)cc(C(F)(C(F)(F)F)C(F)(F)F)cc2Cl)c1F [Compound 16]
≥ 80%: all assays above

Cc1cc(C(F)(C(F)(F)F)C(F)(F)F)cc(Cl)c1NC(=O)c1cccc(N(C)C(=O)c2cccnc2)c1F [Compound 17]
≥ 80%: all assays above

CCN(C(=O)c1cccnc1)c1cccc(C(=O)Nc2c(C)cc(C(F)(C(F)(F)F)C(F)(F)F)cc2Cl)c1F [Compound 18]
≥ 80%: all assays above

From US9402395B2, “Insecticidal compounds” (Syngenta Participations AG, priority 2013, dated 2016)
